The subject of one data set is PI3K isoforms. The settings on record: literature; cited from earlier work.
In the next data set the target is p110α/p85 (Homo sapiens, UniProt P42336). The experiment in a line: Reversible inhibition of isolated enzyme, lipid kinase assay. Type of data set: biochemical. The settings on record: recombinant enzyme, 100 μM ATP, 1 hr, average of two experiments. The method, then: Compounds were evaluated for their ability to inhibit Class I PI 3-kinase enzymes p110δ/p85, p110α/p85, and p110β/p85. Reaction mixtures comprising 0.1 μg of a recombinant enzyme, 10 μg of L-α-phosphatidylinositol, and 2× Lipid Kinase Buffer (40 mM Tris-HCl, pH 7.4, 200 mM NaCl, 1 mM EDTA), which contains either DMSO only as a control or the test compound in DMSO (the final DMSO concentration is 1%), were activated by the addition of an ATP mix (5 mM MgCl2, 100 μM ATP, and 0.1 μL [γ^33P]ATP). Reactions were incubated at room temperature for 1 hr, and then stopped by the addition of 1M HCl. The lipids were then extracted using a two step procedure. Firstly, 200 μL of chloroform/methanol (1:1) was added, the biphasic reactions mixed and centrifuged briefly, and the inorganic phase was removed and discarded. Following this, 80 μL of methanol:HCl (1:1) was added and the same procedure followed. The organic phase (70 μL) was then transferred to a clean 1.6 mL tube and the reactions were dried using a Speedvac, with no heating, for 30 min. The reactions were spotted onto TLC plates (Merck Ltd) and developed for 1 hr in propanol-1:2 M acetic acid (13:7). The TLC plates were then dried at room temperature and quantified using a phosphorimager (StormImager, Amersham). Nine compound concentrations were used for each test compound to determine its IC50 value. Each experiment was performed twice and the average IC50 value is used herein.

Each structure is given as a SMILES string.

Sequence of p110α/p85 (P42336 whole entry): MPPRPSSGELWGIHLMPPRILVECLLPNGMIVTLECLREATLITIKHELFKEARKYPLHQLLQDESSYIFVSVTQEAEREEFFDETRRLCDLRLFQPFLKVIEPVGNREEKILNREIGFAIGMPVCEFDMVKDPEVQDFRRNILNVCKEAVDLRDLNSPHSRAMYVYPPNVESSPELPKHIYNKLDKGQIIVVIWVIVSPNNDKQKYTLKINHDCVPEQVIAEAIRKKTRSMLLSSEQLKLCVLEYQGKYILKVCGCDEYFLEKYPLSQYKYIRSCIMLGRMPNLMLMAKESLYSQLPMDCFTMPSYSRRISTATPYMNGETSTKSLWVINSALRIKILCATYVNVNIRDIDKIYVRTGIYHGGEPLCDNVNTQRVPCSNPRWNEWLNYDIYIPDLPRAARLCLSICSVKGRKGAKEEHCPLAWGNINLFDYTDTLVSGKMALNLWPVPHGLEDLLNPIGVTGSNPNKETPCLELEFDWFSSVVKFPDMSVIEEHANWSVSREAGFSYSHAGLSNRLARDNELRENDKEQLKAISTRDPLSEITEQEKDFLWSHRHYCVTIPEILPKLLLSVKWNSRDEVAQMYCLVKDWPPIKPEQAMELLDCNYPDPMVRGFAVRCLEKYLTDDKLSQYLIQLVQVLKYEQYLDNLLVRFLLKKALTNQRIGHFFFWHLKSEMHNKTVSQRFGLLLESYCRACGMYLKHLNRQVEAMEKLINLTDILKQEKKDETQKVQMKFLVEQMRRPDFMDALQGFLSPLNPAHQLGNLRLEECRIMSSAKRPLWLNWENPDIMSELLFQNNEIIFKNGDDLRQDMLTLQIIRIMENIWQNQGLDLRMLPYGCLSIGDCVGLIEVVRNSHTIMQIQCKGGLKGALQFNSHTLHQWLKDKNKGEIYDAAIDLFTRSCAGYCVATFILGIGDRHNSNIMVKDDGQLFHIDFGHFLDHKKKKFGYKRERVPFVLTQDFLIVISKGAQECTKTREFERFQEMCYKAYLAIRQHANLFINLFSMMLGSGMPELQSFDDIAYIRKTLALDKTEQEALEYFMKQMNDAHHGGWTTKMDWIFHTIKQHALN
Sequence of p110α/p85 (P27986 whole entry partner): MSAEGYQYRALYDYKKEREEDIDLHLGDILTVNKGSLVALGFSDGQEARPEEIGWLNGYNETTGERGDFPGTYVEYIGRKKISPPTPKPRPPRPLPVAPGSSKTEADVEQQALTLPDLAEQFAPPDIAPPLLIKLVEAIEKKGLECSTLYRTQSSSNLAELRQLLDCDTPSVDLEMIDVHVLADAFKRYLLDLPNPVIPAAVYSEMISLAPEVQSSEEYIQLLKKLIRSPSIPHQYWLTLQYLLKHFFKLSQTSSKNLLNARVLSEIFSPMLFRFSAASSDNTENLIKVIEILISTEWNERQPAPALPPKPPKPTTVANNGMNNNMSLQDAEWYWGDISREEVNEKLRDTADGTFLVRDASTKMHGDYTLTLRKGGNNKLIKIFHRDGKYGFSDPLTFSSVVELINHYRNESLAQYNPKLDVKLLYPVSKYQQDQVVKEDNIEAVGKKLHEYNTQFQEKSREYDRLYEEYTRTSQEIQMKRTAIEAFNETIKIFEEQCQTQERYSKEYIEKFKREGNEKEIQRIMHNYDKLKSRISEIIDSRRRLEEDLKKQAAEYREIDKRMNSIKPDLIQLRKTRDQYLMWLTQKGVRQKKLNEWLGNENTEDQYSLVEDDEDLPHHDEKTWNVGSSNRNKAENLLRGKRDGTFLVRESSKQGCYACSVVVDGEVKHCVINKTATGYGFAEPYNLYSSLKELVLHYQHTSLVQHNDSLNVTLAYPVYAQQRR

Consider `O=C1NC(=O)/C(=C\c2ccc3nccnc3c2)S1` [AS605240], for which the PI3K isoform selectivity entry with PI3K isoforms is “γ-selective”.

For orientation: IC50 means the concentration that gives 50% inhibition. In general, melting point refers to the temperature of the solid-liquid transition. As to `COc1cccc2c1nc(C(F)F)n2-c1nc(N2CCOCC2)nc(N(C)C2CCN(C(=O)CCl)CC2)n1` [Example 19, N-[1-(chloroacetyl)-4-piperidinyl]-4-[2-(difluoromethyl)-4-methoxy-1H-benzimidazol-1-yl]-N-methyl-6-(4-morpholinyl)-1,3,5-triazin-2-amine], the melting point lay in the range of 211 to 213 °C. Also, at p110α/p85, the IC50 was < 100 nM.

Take `COc1cccc2c1nc(C(F)F)n2-c1nc(N2CCOCC2)nc(N(C)C2CCN(S(=O)(=O)CCl)CC2)n1` [Example 21, N-{1-[(chloromethyl)sulfonyl]-4-piperidinyl}-4-[2-(difluoromethyl)-4-methoxy-1H-benzimidazol-1-yl]-N-methyl-6-(4-morpholinyl)-1,3,5-triazin-2-amine]: the melting point lay in the range of 212 to 215 °C. Also, the IC50 at p110α/p85 is < 100 nM.

As for `COc1cccc2c1nc(C(F)F)n2-c1nc(N2CCOCC2)nc(N2CCC(NC(=O)CCl)CC2)n1` [Example 22, 2-chloro-N-{1-[4-[2-(difluoromethyl)-4-methoxy-1H-benzimidazol-1-yl]-6-(4-morpholinyl)-1,3,5-triazin-2-yl]-4-piperidinyl}acetamide], the melting point was in the range of 252 to 254 °C. Moreover, the IC50 on p110α/p85 was < 100 nM.

Consider `COc1cccc2c1nc(C(F)F)n2-c1nc(N2CCOCC2)nc(N2CCC(N(C)C(=O)CCl)CC2)n1` [Example 23, 2-chloro-N-{1-[4-[2-(difluoromethyl)-4-methoxy-1H-benzimidazol-1-yl]-6-(4-morpholinyl)-1,3,5-triazin-2-yl]-4-piperidinyl}-N-methylacetamide], for which the melting point fell in the range of 206 to 208 °C. On p110α/p85, the IC50 was < 100 nM.

On to `COc1cccc2c1nc(C(F)F)n2-c1nc(N2CCOCC2)nc(N2CC[C@@H](NC(=O)CCl)C2)n1` [Example 25, 2-chloro-N-{(3R)-1-[4-[2-(difluoromethyl)-4-methoxy-1H-benzimidazol-1-yl]-6-(4-morpholinyl)-1,3,5-triazin-2-yl]pyrrolidinyl}acetamide], for which the melting point lay in the range of 270 to 275 °C. Further, the IC50 at p110α/p85 is < 100 nM.

As for `COc1cccc2c1nc(C(F)F)n2-c1nc(N2CCOCC2)nc(N2CC[C@@H](N(C)C(=O)CCl)C2)n1` [Example 27, 2-chloro-N-{(3R)-1-[4-[2-(difluoromethyl)-4-methoxy-1H-benzimidazol-1-yl]-6-(4-morpholinyl)-1,3,5-triazin-2-yl]pyrrolidinyl}-N-methylacetamide], the melting point is 231 to 233 °C. Besides, the IC50 at p110α/p85 is < 100 nM.

Compound `COc1cccc2c1nc(C(F)F)n2-c1nc(N2CCOCC2)nc(N2CC[C@H](N(C)C(=O)CCl)C2)n1` [Example 28, 2-chloro-N-{(3S)-1-[4-[2-(difluoromethyl)-4-methoxy-1H-benzimidazol-1-yl]-6-(4-morpholinyl)-1,3,5-triazin-2-yl]pyrrolidinyl}-N-methylacetamide] returned a melting point of 230 to 232 °C. The IC50 at p110α/p85 is < 100 nM.

`COc1cccc2c1nc(C(F)F)n2-c1nc(N[C@@H]2CCN(C(=O)CCl)C2)nc(N2CCOCC2)n1` [Example 29, N-[(3R)-1-(chloroacetyl)pyrrolidinyl]-4-[2-(difluoromethyl)-4-methoxy-1H-benzimidazol-1-yl]-6-(4-morpholinyl)-1,3,5-triazin-2-amine] showed a melting point of 208 to 210 °C. For the same compound, the IC50 at p110α/p85 is < 100 nM.

Take `COc1cccc2c1nc(C(F)F)n2-c1nc(N[C@H]2CCN(C(=O)CCl)C2)nc(N2CCOCC2)n1` [Example 30, N-[(3S)-1-(chloroacetyl)pyrrolidinyl]-4-[2-(difluoromethyl)-4-methoxy-1H-benzimidazol-1-yl]-6-(4-morpholinyl)-1,3,5-triazin-2-amine]: the melting point was 208 to 211 °C. Further, the IC50 at p110α/p85 is < 100 nM.

Take `COc1cccc2c1nc(C(F)F)n2-c1nc(N2CCOCC2)nc(N(C)[C@@H]2CCN(C(=O)CCl)C2)n1` [Example 31, N-[(3R)-1-(chloroacetyl)pyrrolidinyl]-4-[2-(difluoromethyl)-4-methoxy-1H-benzimidazol-1-yl]-N-methyl-6-(4-morpholinyl)-1,3,5-triazin-2-amine]: the melting point lay within 219 to 221 °C. For the same compound, the IC50 at p110α/p85 is < 100 nM.

Take `COc1cccc2c1nc(C(F)F)n2-c1nc(N2CCOCC2)nc(N(C)[C@H]2CCN(C(=O)CCl)C2)n1` [Example 32, N-[(3S)-1-(chloroacetyl)pyrrolidinyl]-4-[2-(difluoromethyl)-4-methoxy-1H-benzimidazol-1-yl]-N-methyl-6-(4-morpholinyl)-1,3,5-triazin-2-amine]: the melting point is 219 to 221 °C. On p110α/p85, the IC50 is < 100 nM.

Take `COc1cccc2c1nc(C(F)F)n2-c1nc(N2CCOCC2)nc(N2CCC[C@@H](NC(=O)CCl)C2)n1` [Example 33]: the melting point was 231 to 233 °C. On p110α/p85, the IC50 is < 100 nM.

On to `COc1cccc2c1nc(C(F)F)n2-c1nc(N2CCOCC2)nc(N2CCC[C@H](NC(=O)CCl)C2)n1` [Example 34, 2-chloro-N-{(3S)-1-[4-[2-(difluoromethyl)-4-methoxy-1H-benzimidazol-1-yl]-6-(4-morpholinyl)-1,3,5-triazin-2-yl]piperidinyl}acetamide], for which the melting point is 227 to 229 °C. The half-inhibitory concentration (IC50) at p110α/p85 was < 100 nM.

For the compound `COc1cccc2c1nc(C(F)F)n2-c1nc(N2CCOCC2)nc(N2CCC[C@@H](N(C)C(=O)CCl)C2)n1` [Example 35, 2-chloro-N-{(3R)-1-[4-[2-(difluoromethyl)-4-methoxy-1H-benzimidazol-1-yl]-6-(4-morpholinyl)-1,3,5-triazin-2-yl]piperidinyl}-N-methylacetamide], the melting point was 201 to 203 °C. On p110α/p85, the IC50 is < 100 nM.

Regarding `COc1cccc2c1nc(C(F)F)n2-c1nc(N[C@@H]2CCCN(C(=O)CCl)C2)nc(N2CCOCC2)n1` [Example 37], the melting point fell in the range of 190 to 192 °C. On p110α/p85, the IC50 was < 100 nM.

`COc1cccc2c1nc(C(F)F)n2-c1nc(N2CCOCC2)nc(N2CC(NC(=O)CCl)C2)n1` [Example 41, 2-chloro-N-{1-[4-[2-(difluoromethyl)-4-methoxy-1H-benzimidazol-1-yl]-6-(4-morpholinyl)-1,3,5-triazin-2-yl]-3-azetidinyl}acetamide] displayed a melting point of 272 to 275 °C. For the same compound, on p110α/p85, the IC50 is < 100 nM.

For the compound `COc1cccc2c1nc(C(F)F)n2-c1nc(N2CCOCC2)nc(N2CC(N(C)C(=O)CCl)C2)n1` [Example 42, 2-chloro-N-{1-[4-[2-(difluoromethyl)-4-methoxy-1H-benzimidazol-1-yl]-6-(4-morpholinyl)-1,3,5-triazin-2-yl]-3-azetidinyl}-N-methylacetamide], the melting point lay in the range of 233 to 236 °C. In addition, on p110α/p85, the half-inhibitory concentration (IC50) is < 100 nM.

With `COc1cccc2c1nc(C(F)F)n2-c1nc(NC2CN(C(=O)CCl)C2)nc(N2CCOCC2)n1` [Example 43, N-[1-(chloroacetyl)-3-azetidinyl]-4-[2-(difluoromethyl)-4-methoxy-1H-benzimidazol-1-yl]-6-(4-morpholinyl)-1,3,5-triazin-2-amine], the melting point lay within 219 to 221 °C. Further, the IC50 on p110α/p85 was < 100 nM.

`COc1cccc2c1nc(C(F)F)n2-c1nc(N2CCOCC2)nc(N(C)C2CN(C(=O)CCl)C2)n1` [Example 44, N-[1-(chloroacetyl)-3-azetidinyl]-4-[2-(difluoromethyl)-4-methoxy-1H-benzimidazol-1-yl]-N-methyl-6-(4-morpholinyl)-1,3,5-triazin-2-amine] registered a melting point of 220 to 222 °C. At p110α/p85, the IC50 is < 100 nM.

As to `COc1cccc2c1nc(C(F)F)n2-c1nc(OC2CCN(C(=O)CCl)CC2)nc(N2CCOCC2)n1` [Example 45, 1-[4-{[1-(chloroacetyl)-4-piperidinyl]oxy}-6-(4-morpholinyl)-1,3,5-triazin-2-yl]-2-(difluoromethyl)-4-methoxy-1H-benzimidazole], the melting point was in the range of 170 to 172 °C. For the same compound, the IC50 on p110α/p85 is < 100 nM.

Compound `COc1cccc2c1nc(C(F)F)n2-c1nc(N2CCOCC2)c2cnn(C3CCN(S(=O)(=O)CCl)CC3)c2n1` [Example 48, 1-{1-[(chloromethyl)sulfonyl]-4-piperidinyl}-6-[2-(difluoromethyl)-4-methoxy-1H-benzimidazol-1-yl]-4-(4-morpholinyl)-1H-pyrazolo[3,4-d]pyrimidine] returned a melting point of 250 to 253 °C. Moreover, on p110α/p85, the IC50 is < 100 nM.

For the compound `Cc1ccccc1-n1c(Cn2cnc3c(N)ncnc32)nc2cccc(C)c2c1=O` [IC87114], the PI3K isoform selectivity result with PI3K isoforms is listed as “δ-selective”.

As for `Oc1cccc(-c2nc(N3CCOCC3)c3oc4ncccc4c3n2)c1` [PI103], the PI3K isoform selectivity entry with PI3K isoforms was “slightly α-selective”.

As to `C=CCN(/C=C1/C(=O)O[C@H](COC)[C@@]2(C)C1=C(O)C(=O)C1=C2[C@H](OC(C)=O)C[C@]2(C)C(=O)CC[C@@H]12)CC=C` [PX-866], in the data set with PI3K isoforms, the PI3K isoform selectivity entry is on record as “not selective for individual PI3K isoforms” and the “mode of PI3K inhibition (reversible / irreversible)” value is recorded as “irreversible activity”.

The record behind these values is US20110053907A1, “SUBSTITUTED PYRIMIDINES AND TRIAZINES AND THEIR USE IN CANCER THERAPY” (Auckland UniServices Limited, priority 2008, published 2011).
